The text below walks through data of patent US11364211B2, “Methods for selecting phosphatase selective and non-selective phosphatase inhibitors” (MEDICAL RESEARCH COUNCIL, priority 2015, dated 2022).

SMILES strings stand for the structures.

The assay has as its target T1, PPP1R15A-PP1 complex (Homo sapiens, UniProt O75807).
T1 construct: the cDNAs encoding amino acids 325-636 of PPP1R15A; made in house; host or cells: R15A fragment: E. coli BL21-Gold; BAP-PP1γ: Sf9 insect cells (baculovirus)
Briefly: SPR steady-state binding to R15A-PP1c holophosphatase on streptavidin chip. The method, then:
The streptavidin coated surface was activated by 1 min injection with a solution of 50 mM NaOH and 1 M NaCl. Biotin-PP1 was diluted in the running buffer (50 mM Tris pH 7.5, 100 mM NaCl, 0.1 mM EGTA, 1 mM MnCl2, 0.05% Tween 20) and injected at approximately 300 nM concentration directly to streptavidin coated surface for 100 sec or to reach immobilization level of biotin-PP1 corresponding to ˜7000 RU. A blank immobilization was performed for one of the SA sensor chip surface to use as a reference.
With minor deviations, the same procedure and conditions were used in all binding experiments. Small molecules were stored as 50 mM stock solutions in 100% DMSO. Prior to determining binding constants, serial dilutions of either 12 or 8 concentrations of the compounds were prepared in the running buffer in a 96-well plate. […] Then, without regenerating the surface, the compound dilution series was injected onto the surface of the chip Sensorgrams were analyzed using the Biacore T200 evaluation software and the binding constants determined based on a steady-state model. Kinetic experiments are carried out using different concentrations of the compound and their respective equilibrium binding levels determined.
Surface Plasmon Resonance (SPR) was used to measure the binding affinity of compounds to the PPP1R15A/B-PP1 phosphatase complex. Biotin acceptor peptide (BAP) was fused to the N-terminus of PP1γ, which enables the biotinylation of the BAP-tagged protein in Sf9 insect cells. After purification the BAP-PP1γ protein was captured on a streptavidin sensor chip (SA-chip, GE healthcare) to a response level of ˜5.000 RU. Using controlled biotinylation enables orientated and uniform immobilization on the sensor chip surface. The PP1γ was then used to capture PPP1R15A/B and form a holophosphatase complex on the surface of the streptavidin chip. This complex can then be used to test binding of compounds. 10 μM PPP1R15A/B protein concentration was used to form the holophosphatase complex during a 80 s injection. […] After the concentration series (8 or 12 concentrations) is completed the surface is regenerated with 3 M NaCl and we can capture R15A/B again to form a fresh holophosphatase complex to measure a binding of another compound concentration series. Analysing the level of equilibrium binding as a function of concentration gives interaction affinities or steady-state binding affinity (KD).
The streptavidin coated surface was activated by 1 minute injection with a solution of 50 mM NaOH and 1 M NaCl three times at a flow rate of 10 μl/min. bio-GBZ or bio-PP1c was diluted in the running buffer (50 mM Tris pH 7.5, 100 mM NaCl, 0.1 mM EGTA, 0.05% Tween 20, 0.1% DMSO) and injected at approximately 300 nM concentration at a flow rate of 10 μl/min directly to streptavidin coated surface to reach immobilization level of bio-GBZ or bio-PP1c corresponding to ˜200 and 6000 RU, respectively. A blank immobilization was performed for one of the SA sensor chip surface to use as a reference.
With minor deviations, the same procedure and conditions were used in all binding experiments. Small molecules were stored as 50 mM stock solutions in 100% DMSO. Prior to determining binding constants, serial dilutions of either 12 or 8 concentrations of the compounds were prepared in the running buffer in a 96-well plate. […] This was followed by 1 minute stabilization period, to wash off any unspecific binding. […]

T1 sequence (O75807 325-636): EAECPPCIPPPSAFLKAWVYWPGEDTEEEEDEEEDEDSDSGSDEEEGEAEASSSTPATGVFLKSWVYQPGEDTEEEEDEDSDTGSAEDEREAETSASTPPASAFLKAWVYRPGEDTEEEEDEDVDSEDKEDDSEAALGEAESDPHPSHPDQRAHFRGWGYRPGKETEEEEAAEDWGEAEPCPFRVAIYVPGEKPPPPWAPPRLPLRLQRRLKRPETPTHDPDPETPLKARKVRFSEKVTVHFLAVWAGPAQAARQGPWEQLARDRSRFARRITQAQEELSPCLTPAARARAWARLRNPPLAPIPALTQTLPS
T1 sequence (P36873 whole entry partner, the tested form may be a part): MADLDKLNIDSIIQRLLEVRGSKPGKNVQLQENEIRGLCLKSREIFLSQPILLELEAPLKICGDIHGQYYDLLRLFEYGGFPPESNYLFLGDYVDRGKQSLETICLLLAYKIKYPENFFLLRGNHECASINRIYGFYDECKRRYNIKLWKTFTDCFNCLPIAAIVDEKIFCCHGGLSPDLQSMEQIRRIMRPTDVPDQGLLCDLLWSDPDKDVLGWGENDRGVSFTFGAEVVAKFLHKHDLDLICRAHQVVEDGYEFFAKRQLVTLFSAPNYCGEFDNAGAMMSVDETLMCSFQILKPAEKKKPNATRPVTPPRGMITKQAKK

Consider `N=C(N)N/N=C/c1c(Cl)cccc1Cl` [Guanabenz, reference compound], for which the “binding to R15A-PP1c (in words)” value was “strongly bound”. Besides, under “steady-state affinity, listed as GBZ”, the equilibrium dissociation constant (Kd) amounted to 122 nM.

One may read the Kd as a measure of binding affinity in units of concentration. Low values mean tighter binding, high ones weaker binding.
